Source: PMC4389562, “Antigiardial activity of novel triazolyl-quinolone-based chalcone derivatives: when oxygen makes the difference” (Frontiers in Microbiology, 2015)
Like-named read-outs stand apart in the source and are kept apart here.

Key:
Caco-2 cells = assay: Counter-screen on Caco-2 cells, ATP level by luminescence (ATPlite), 48 h incubation; format: cell-based, human; settings: atmospheric O2, 5% CO2, 48 h, 37 °C
Protocol: Trophozoites of G. intestinalis strain WB clone C6 (ATCC No. 50803TM) were cultured axenically at 37^∘C in 25-cm^2 flasks containing Diamond’s TYI-S-33 medium supplemented with 10% bovine calf serum, 1 mg/mL bovine bile, 0.1 g/L streptomycin and 100 U/mL penicillin. […] Human epithelial colorectal adenocarcinoma (Caco-2) cells were grown in 25-cm^2 flasks in EMEM supplemented with 1% (v/v) non-essential amino acids, 2 mM glutamine, 5% (v/v) fetal bovine serum, 0.1 g/L streptomycin, and 100 U/mL penicillin.
Cells were detached with 0.5% trypsin-EDTA and seeded in sterile 96-well white clear-bottom plates at the same density of Giardia trophozoites and at increasing concentration of the compound to be tested, as described above. The assays were carried out exactly as reported for the Giardia trophozoites, except that the plates were incubated (still at 37^∘C) at atmospheric O2 level, 5% CO2, and 95% humidity. Each drug concentration was tested in at least seven replicates. MTZ was used as an internal […] control in the assay. Following 48 h incubation with each compound, according to the manufacturer instructions, 100 μL of the ATPlite^TM luminescence assay system (Perkin Elmer) was added to each well for one-step lysis and ATP level detection by luminescence.
Luminometric data were calibrated using ATP standard curves and normalized to the ATP level measured in control DMSO-treated cells (taken as 100%). The measured ATP level percentage was plotted as a function of the compound concentration and the half-maximal inhibitory concentration (IC50) was obtained by fitting the resulting titration profile to the Hill equation ([Goutelle et al., 2008]). The selectivity index (SI) of the compounds was then calculated as the ratio between the IC50 value measured on human cells over the value determined on Giardia trophozoites (SI = IC50,Caco-2/IC50,Giardia).
Selectivity of the newly synthesized compounds toward Giardia was assessed by running a counter-screen on human epithelial Caco-2 cells. […] This allowed us to calculate the compounds SI, defined as the ratio between the IC50 value measured on human cells over the value determined on Giardia trophozoites.

[1] = system: Giardia intestinalis trophozoites; assay: Drug susceptibility of Giardia trophozoites, ATP level by luminescence (BacTiter-Glo), 48 h incubation, anaerobic or microaerobic; format: cell-based, Giardia intestinalis strain WB clone C6; settings: for IC50: 48 h, 37 °C, ATP level; for selectivity ratio at 48 h: human (Caco-2 cells) versus Giardia intestinalis, Caco-2, SI = IC50,Caco-2/IC50,Giardia; for Selectivity (IC50,Caco/IC50,Giardia) Anaerobiosis / Selectivity (IC50,Caco/IC50,Giardia) Microaerobiosis: SI = IC50,Caco-2/IC50,Giardia
Protocol: Trophozoites of G. intestinalis strain WB clone C6 (ATCC No. 50803TM) were cultured axenically at 37^∘C in 25-cm^2 flasks containing Diamond's TYI-S-33 medium supplemented with 10% bovine calf serum, 1 mg/mL bovine bile, 0.1 g/L streptomycin and 100 U/mL penicillin. Typically, 50 ml medium was inoculated with 25 × 10^6 cells and after 2 days cells were harvested by chilling the flasks on ice for 30 min for drug susceptibility assays. […] The assays were performed following the procedure described in [Bahadur et al. (2014)], using sterile 96-well white clear-bottom plates. […] Each drug concentration was tested in at least six replicates. MTZ was used as an internal positive control in the assay. The microtiter plates were then incubated at 37^∘C under anaerobic or microaerobic conditions, ensured by the Anaerocult® A or the Anaerocult® […] (Merck), respectively. […] Following 48 h incubation with the compound to be tested, 100 μL of the BacTiter-Glo^TM Microbial Cell Viability Assay System reagent (Promega) was added to each well for one-step lysis and ATP level detection. Plates were then incubated at room temperature for 15 min and ATP levels finally detected by luminescence on a plate reader (Wallac Victor3 1420 Multilabel Counter, PerkinElmer). Luminometric data were calibrated using ATP standard curves and normalized to the ATP level measured in control DMSO-treated cells (taken as 100%). The measured ATP level percentage was plotted as a function of the compound concentration and the half-maximal inhibitory concentration (IC50) was obtained by fitting the resulting titration profile to the Hill equation ([Goutelle et al., 2008]). The selectivity index (SI) of the compounds was then calculated as the ratio between the IC50 value measured on human cells over the value determined on Giardia trophozoites (SI = IC50,Caco-2/IC50,Giardia). The antigiardial activity of the novel compounds 23-67 was tested under both anaerobic and microaerobic conditions. According to ([Dunn et al., 2010]; [Bahadur et al., 2014]), susceptibility of Giardia trophozoites to increasing concentrations of each compound was assessed based on ATP level determination by luminescence. Dose-response curves for each compound were obtained after 48 h-incubation and compared to the data collected under identical conditions with MTZ, the drug of choice for treatment of giardiasis. […] Typical dose-response curves are shown in Figure 2, whereas the IC50 values measured for the synthetic compounds and MTZ under anaerobic and microaerobic conditions are reported in Table 1. […] Under anaerobic conditions, 18 out of the 45 synthetic compounds were as effective as MTZ or more under identical conditions (see Table 1).

[2] = Giardia duodenalis, anaerobic conditions (Anaerocult A), read-out: Giardia (anaerobiosis) IC50
[3] = Giardia duodenalis, microaerobic conditions (~5% O2, Anaerocult C), read-out: Giardia (microaerobiosis) IC50
[4] = Giardia under anaerobiosis, read-out: Selectivity (IC50,Caco/IC50,Giardia) Anaerobiosis
[5] = anaerobic conditions (Anaerocult A), read-out: Giardia (anaerobiosis) IC50
[6] = microaerobic conditions (~5% O2, Anaerocult C), read-out: Giardia (microaerobiosis) IC50

Compound | IC50 (Caco-2 cells; Homo sapiens, Caco-2, 48 h) | IC50 [1, 2] | IC50 [1, 3] | selectivity ratio at 48 h [1, 4] | selectivity ratio at 48 h ([1]; Giardia under microaerobiosis, read-out: Selectivity (IC50,Caco/IC50,Giardia) Microaerobiosis) | melting point | IC50 (Caco-2 cells) | Selectivity (IC50,Caco/IC50,Giardia) Anaerobiosis ([1]; Giardia under anaerobiosis) | Selectivity (IC50,Caco/IC50,Giardia) Microaerobiosis ([1]; Giardia under microaerobiosis) | IC50 [1, 5] | IC50 [1, 6] | fold more efficient than MTZ against Giardia ([1]; anaerobic conditions, relative to MTZ)
COc1cccc(C(=O)/C=C/c2cc3ccccc3n(Cc3cn(-c4ccc(Cl)cc4)nn3)c2=O)c1 [Compound 57] | 14.7 µM | 6.6 µM | 1.1 µM | 2.2 | 11.3 | 215 to 217 °C | – | – | – | – | – | –
COc1ccccc1C(=O)/C=C/c1cc2ccccc2n(Cc2cn(-c3ccc(C)cc3)nn2)c1=O [Compound 38] | – | – | – | – | – | – | 13.7 µM | 6,9 | 34,3 | 2 µM | 0.4 µM | –
Cc1ncc([N+](=O)[O-])n1CCO [MTZ, metronidazole, reference compound] | > 100 µM | 3.4 µM | ≥ 25 µM | ≥ 29 | – | – | – | – | – | – | – | –
O=C(/C=C/c1cc2ccccc2n(Cc2cn(-c3ccc(Cl)cc3)nn2)c1=O)c1ccc(Br)cc1 [Compound 54] | – | – | – | – | – | – | ≥ 20 µM | ≥ 2 | ≥10 | 9.2 µM | 1.9 µM | –
O=C(/C=C/c1cc2ccccc2n(Cc2cn(-c3ccc(F)cc3)nn2)c1=O)c1ccccc1F [Compound 41] | – | – | – | – | – | – | 5.2 µM | 5,8 | 26 | 0.9 µM | 0.2 µM | three to fourfold
COc1ccc(-n2cc(Cn3c(=O)c(/C=C/C(=O)c4cccc(OC)c4)cc4ccccc43)nn2)cc1 [Compound 30] | – | – | – | – | – | – | ≥ 200 µM | ≥33 | ≥153 | 5.9 µM | 1.3 µM | –
Cc1ccc(C(=O)/C=C/c2cc3ccccc3n(Cc3cn(-c4ccc(F)cc4)nn3)c2=O)cc1 [Compound 46] | – | – | – | – | – | – | 6.3 µM | 2,5 | 15,8 | 2.5 µM | 0.4 µM | –
COc1ccc(-n2cc(Cn3c(=O)c(/C=C/C(=O)c4ccc(Br)cc4)cc4ccccc43)nn2)cc1 [Compound 27] | – | – | – | – | – | – | ≥ 20 µM | ≥2 | ≥10 | 9.6 µM | 2 µM | –
COc1ccc(-n2cc(Cn3c(=O)c(/C=C/C(=O)c4cccc(F)c4)cc4ccccc43)nn2)cc1 [Compound 24] | – | – | – | – | – | – | ≥ 50 µM | – | ≥6 | ≥ 100 µM | 8.4 µM | –
O=C(/C=C/c1cc2ccccc2n(Cc2cn(-c3ccccc3)nn2)c1=O)c1ccc(Br)cc1 [Compound 63] | – | – | – | – | – | – | ≥ 50 µM | ≥ 7 | ≥ 50 | 6.3 µM | 1 µM | –
Cc1ccc(-n2cc(Cn3c(=O)c(/C=C/C(=O)c4cccc(F)c4)cc4ccccc43)nn2)cc1 [Compound 33] | – | – | – | – | – | – | 13.4 µM | 3,4 | 19,1 | 4 µM | 0.7 µM | –
